Experimental data from PubChem BioAssay AID1817 (Sanford-Burnham Center for Chemical Genomics, 2009).
Calls of active or inactive are those of the source.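 Rule for the calls: active = displacement of at least 50% at 20 µM, with a fluorescence ratio check between 0.3 and a set limit; inactive = the rest.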

Target: E3 ubiquitin-protein ligase SIAH1 (Homo sapiens) (UniProt Q8IUQ4)
Experiment: Siah-1 peptide-binding antagonists, primary screen, biochemical, fluorescence polarization, rhodamine-plectin, uHTS (AID 1817)
Details: Siah-1 / rhodamine-plectin peptide fluorescence polarization

Sequence of E3 ubiquitin-protein ligase SIAH1 (Homo sapiens) (Q8IUQ4 whole entry, looked up): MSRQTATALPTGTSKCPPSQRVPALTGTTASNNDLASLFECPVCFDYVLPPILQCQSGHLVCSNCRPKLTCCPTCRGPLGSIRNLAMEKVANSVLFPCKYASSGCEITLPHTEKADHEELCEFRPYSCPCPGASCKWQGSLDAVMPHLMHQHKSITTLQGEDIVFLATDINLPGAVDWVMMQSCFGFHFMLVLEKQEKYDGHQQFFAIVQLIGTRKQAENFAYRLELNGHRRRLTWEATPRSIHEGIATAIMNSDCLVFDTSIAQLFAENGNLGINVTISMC

| SMILES | IC50 |
| --- | --- |
| CN1C(=O)NC(c2ccccc2[N+](=O)[O-])C2=C1CCCC2=O (stereo not given) | 10.3 µM |
| N#Cc1c(NC(=O)c2ccc(Br)o2)n(-c2ccccc2)c2nc3ccccc3nc12 | > 200 µM (inactive) |
| Cc1cc(C)n2ncc(C(=O)Nc3ccc4c(c3)OCO4)c2n1 | > 200 µM (inactive) |
| CCCCNc1nnc(Cc2ccc(Cl)cc2)c(=O)[nH]1 | > 200 µM (inactive) |
| C=C(C)Cn1c(N2CCN(CC)CC2)nc2c1c(=O)[nH]c(=O)n2C | > 200 µM (inactive) |
| O=C(O)c1cc(Cl)c(Cl)cc1C(=O)Nc1cccc2cccnc12 | > 200 µM (inactive) |
| COC(=O)c1cc(NC(=O)c2ccccc2)c(=O)oc1/C=C/Nc1ccc(Oc2ccccc2)cc1 | > 200 µM (inactive) |
| CCOc1ccccc1CNc1ccc(O)cc1 | inactive |
| COC(=O)c1ccc2c(c1)C(C)(C)C(/C=C/c1ccccc1O)=[N+]2C | > 200 µM (inactive) |
| CC1CCN(S(=O)(=O)c2ccc3c(c2)c(=O)c(C(=O)NCc2ccccc2Cl)cn3C)CC1 | > 200 µM (inactive) |
| O=C(Nc1ccc(Cl)cc1)c1ccc(S(=O)(=O)N2CCOCC2)cc1 | > 200 µM (inactive) |
| O=C(Nc1ccc(Oc2ccsc2C(=O)O)cc1)c1ccccc1F | > 200 µM (inactive) |
| COCCCNc1c2c3c(cccc3[nH]c1=O)C(=O)c1ccccc1-2 | > 200 µM (inactive) |
| CCCCn1c(NS(=O)(=O)c2ccccc2)c(C(=O)OCC)c2nc3ccccc3nc21 | > 200 µM (inactive) |
| Cc1coc2c(C)c3oc(=O)c(CCC(=O)N[C@@H](C)C(=O)N[C@@H](Cc4ccccc4)C(=O)O)c(C)c3cc12 | 16.8 µM |
| COCCn1nnnc1C(c1cc2ccc(OC)cc2[nH]c1=O)N1CCc2ccccc2C1 (stereo not given) | > 200 µM (inactive) |
| CCc1nnc(NS(=O)(=O)c2ccc(NC(=S)NC(=O)/C=C/c3ccc(C(C)C)cc3)cc2)s1 | 19.2 µM |
| COC(=O)C1C=C2c3cccc4[nH]cc(c34)CC2N(C)C1 (stereo not given) | inactive |

| SMILES | IC50 |
| --- | --- |
| CC1=C(C#N)c2nc(N)c(C#N)c(C)c2/C1=C\c1ccc(-c2ccccc2C(=O)O)o1 | 20.6 µM |
| O=C(Nc1ccc(S(=O)(=O)N2CCOCC2)cc1)c1ccc(=O)[nH]c1 | 20.5 µM |
| O=C(O)c1cc(O)c2c(c1)C(=O)c1cccc(O)c1C2=O | inactive |
| CN(C)c1cccc2c(C=C(C#N)C#N)ccc(N(C)C)c12 | > 200 µM (inactive) |
| COc1ccc(CCNC(=O)CCC(=O)N2CCOc3ccc(C)cc32)cc1OC | > 200 µM (inactive) |
| CC(=O)c1ccc(NC(=O)CC2Nc3cccc4cccc(c34)NC2=O)cc1 (stereo not given) | > 200 µM (inactive) |
| COCCOC(=O)c1sc(=S)n(CCOC)c1N | 8.07 µM |
| Cc1cc2cc(CNC(=O)c3ccc(S(=O)(=O)N4CCCCC4)cc3)ccc2n1C | > 200 µM (inactive) |
| Cc1ccc(C(=O)COc2ccccc2C(=O)Nc2ccccc2)cc1 | > 200 µM (inactive) |
| COc1cc(/C=C2/SC(=S)N(Cc3ccccc3)C2=O)cc(Cl)c1O | > 200 µM (inactive) |
| O=C(O)CCCCN1C(=O)/C(=C\c2ccc(OCc3ccccc3)c(OCc3ccccc3)c2)SC1=S | > 200 µM (inactive) |
| CCCCn1c(NS(=O)(=O)c2ccccc2)c(S(=O)(=O)c2ccc(C)cc2)c2nc3ccccc3nc21 | > 200 µM (inactive) |
| C=CCc1cccc2cc(C(=O)Nc3ccc(CC(=O)O)cc3)c(=O)oc12 | 17.3 µM |
| O=S(=O)(Nc1c(S(=O)(=O)c2ccccc2)c2nc3ccccc3nc2n1C1CCCCC1)c1ccccc1 | > 200 µM (inactive) |
| O=C(CCn1ccc2ccccc21)NC1CCCc2ccccc21 (stereo not given) | > 200 µM (inactive) |
| COc1cccc(CCC(=O)N(C)C2CCCN(Cc3ccccc3F)C2)c1 (stereo not given) | > 200 µM (inactive) |
| Nc1c(C(=O)NCc2ccco2)c2nc3ccccc3nc2n1Cc1ccccc1 | > 200 µM (inactive) |
